# Reference: patent publication US20240158393A1, “PYRIDONE COMPOUNDS AND METHODS OF USE” (Exelixis, Inc., priority 2021, published 2024)
# pIC50: −log10 of the molar value. Structures can show the parent of a compound that is named as a salt.
# Biological target: T1, Human Axl (Homo sapiens, UniProt P30530)
# T1 construct: Human AXL (residues 464-885)
# T1 sequence (P30530 1-894 Q764R): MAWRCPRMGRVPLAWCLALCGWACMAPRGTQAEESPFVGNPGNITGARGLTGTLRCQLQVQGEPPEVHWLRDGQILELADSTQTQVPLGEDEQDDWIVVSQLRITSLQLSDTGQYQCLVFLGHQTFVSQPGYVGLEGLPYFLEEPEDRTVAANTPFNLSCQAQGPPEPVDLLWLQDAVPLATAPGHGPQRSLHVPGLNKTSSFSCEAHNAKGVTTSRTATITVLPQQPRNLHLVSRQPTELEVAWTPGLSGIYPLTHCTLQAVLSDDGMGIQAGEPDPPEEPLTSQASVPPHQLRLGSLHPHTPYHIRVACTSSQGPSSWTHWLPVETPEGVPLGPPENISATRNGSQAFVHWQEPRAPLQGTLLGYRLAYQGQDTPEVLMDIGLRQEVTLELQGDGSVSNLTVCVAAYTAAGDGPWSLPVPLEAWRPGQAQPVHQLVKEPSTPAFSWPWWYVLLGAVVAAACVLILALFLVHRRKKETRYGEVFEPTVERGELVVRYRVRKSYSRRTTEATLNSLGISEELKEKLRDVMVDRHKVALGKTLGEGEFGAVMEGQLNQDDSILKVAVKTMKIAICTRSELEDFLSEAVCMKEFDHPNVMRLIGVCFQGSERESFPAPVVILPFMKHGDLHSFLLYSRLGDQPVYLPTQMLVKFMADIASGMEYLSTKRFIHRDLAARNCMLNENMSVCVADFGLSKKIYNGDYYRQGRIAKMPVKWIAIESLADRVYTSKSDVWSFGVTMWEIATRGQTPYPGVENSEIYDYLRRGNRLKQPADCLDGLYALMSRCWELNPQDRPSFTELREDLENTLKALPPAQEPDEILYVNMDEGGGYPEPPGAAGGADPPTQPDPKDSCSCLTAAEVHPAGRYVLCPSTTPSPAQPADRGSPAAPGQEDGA
# Assay: Human AXL kinase assay (33P radiometric / HTRF KinEase)
# Format: biochemical
# Conditions: protocols of Examples A-1 and/or A-2
row,Compound,pIC50
1,"COc1cc2nccc(Oc3ccc(NC(=O)c4cn(CCF)c(C)c(C5=CCCCC5)c4=O)cc3F)c2nc1OC [Compound 8, 5-(Cyclohexen-1-yl)-N-[4-[(6,7-dimethoxy-1,5-naphthyridin-4-yl)oxy]-3-fluorophenyl]-1-(2-fluoroethyl)-6-methyl-4-oxopyridine-3-carboxamide]",≥ 7.00
2,"COc1cc2nccc(Oc3ccc(NC(=O)c4c(C)cc(C)n(C5CCCC5)c4=O)cc3F)c2nc1OC [Compound 15, 1-Cyclopentyl-N-[4-[(6,7-dimethoxy-1,5-naphthyridin-4-yl)oxy]-3-fluorophenyl]-4,6-dimethyl-2-oxopyridine-3-carboxamide]",≥ 7.00
3,"COCCOc1cc2nccc(Oc3ccc(NC(=O)c4c(C)n(C)c(C)c(/C=C/C5CC5)c4=O)cc3F)c2nc1OC [Compound 51, 5-[(E)-2-Cyclopropylethenyl]-N-[3-fluoro-4-[[6-methoxy-7-(2-methoxyethoxy)-1,5-naphthyridin-4-yl]oxy]phenyl]-1,2,6-trimethyl-4-oxopyridine-3-carboxamide]",≥ 7.00
4,"COc1cc2nccc(Oc3ccc(NC(=O)c4c(C)n(C)c(C)c(N5CCCCC5)c4=O)cc3F)c2nc1OC [Compound 90, N-[4-[(6,7-dimethoxy-1,5-naphthyridin-4-yl)oxy]-3-fluorophenyl]-1,2,6-trimethyl-4-oxo-5-piperidin-1-ylpyridine-3-carboxamide]",≥ 7.00
5,"COc1cnc2c(Oc3ccc(NC(=O)c4c(C)n(C)c(C)c(C#N)c4=O)cc3F)ccnc2c1 [Compound 81, 5-Cyano-N-[3-fluoro-4-[(7-methoxy-1,5-naphthyridin-4-yl)oxy]phenyl]-1,2,6-trimethyl-4-oxopyridine-3-carboxamide]",< 6.52
6,"COCCOc1cc2nccc(Oc3ccc(NC(=O)c4cnc(C)c(C5=CCCC5)c4O)cc3F)c2nc1OC [Compound 33, 5-(Cyclopenten-1-yl)-N-[3-fluoro-4-[[6-methoxy-7-(2-methoxyethoxy)-1,5-naphthyridin-4-yl]oxy]phenyl]-4-hydroxy-6-methylpyridine-3-carboxamide]",≥ 7.00
7,"COc1cc2nccc(Oc3ccc(NC(=O)c4c(C)n(C)c(C)c(C5CC5)c4=O)cc3F)c2nc1OC [Compound 46, 5-Cyclopropyl-N-[4-[(6,7-dimethoxy-1,5-naphthyridin-4-yl)oxy]-3-fluorophenyl]-1,2,6-trimethyl-4-oxopyridine-3-carboxamide]",6.52 to 7.00
8,"COc1ccc2nccc(Oc3ccc(NC(=O)c4cnc(C)c(C5=CCCC5)c4O)cc3F)c2n1 [Compound 1-7, 5-(Cyclopenten-1-yl)-N-[3-fluoro-4-[(6-methoxy-1,5-naphthyridin-4-yl)oxy]phenyl]-4-hydroxy-6-methylpyridine-3-carboxamide]",≥ 7.00
9,"COCCOc1cc2nccc(Oc3ccc(NC(=O)c4c(C)nc(C)c(C5=CCOCC5)c4O)cc3F)c2nc1OC [Compound 43, 5-(3,6-Dihydro-2H-pyran-4-yl)-N-[3-fluoro-4-[[6-methoxy-7-(2-methoxyethoxy)-1,5-naphthyridin-4-yl]oxy]phenyl]-4-hydroxy-2,6-dimethylpyridine-3-carboxamide]",≥ 7.00
10,"COc1cc2nccc(Oc3ccc(NC(=O)c4c5n(c(C)c(C6=CCOCC6)c4=O)CCOC5)cc3F)c2nc1OC [Compound 79, 7-(3,6-Dihydro-2H-pyran-4-yl)-N-[4-[(6,7-dimethoxy-1,5-naphthyridin-4-yl)oxy]-3-fluorophenyl]-6-methyl-8-oxo-3,4-dihydro-1H-pyrido[2,1-c][1,4]oxazine-9-carboxamide]",≥ 7.00
11,"COc1cc2nccc(Oc3ccc(NC(=O)c4c5n(cc(C6=CCCCC6)c4=O)CCOC5)cc3)c2nc1OC [Compound G1-5, 7-(Cyclohexen-1-yl)-N-[4-[(6,7-dimethoxy-1,5-naphthyridin-4-yl)oxy]phenyl]-8-oxo-3,4-dihydro-1H-pyrido[2,1-c][1,4]oxazine-9-carboxamide]",≥ 7.00
12,"C=C(C)c1c(C)nc(C)c(C(=O)Nc2cc(F)c(Oc3ccnc4cc(OC)c(OC)nc34)cc2F)c1O [Compound 6, N-[4-[(6,7-Dimethoxy-1,5-naphthyridin-4-yl)oxy]-2,5-difluorophenyl]-4-hydroxy-2,6-dimethyl-5-prop-1-en-2-ylpyridine-3-carboxamide]",≥ 7.00
13,"COCCOc1cc2nccc(Oc3ccc(NC(=O)c4c(C)n(C)c(C)c(C5=CCCC5)c4=O)cc3F)c2nc1OC [Compound 42, 5-(Cyclopenten-1-yl)-N-[3-fluoro-4-[[6-methoxy-7-(2-methoxyethoxy)-1,5-naphthyridin-4-yl]oxy]phenyl]-1,2,6-trimethyl-4-oxopyridine-3-carboxamide]",≥ 7.00
14,"COCCOc1cc2nccc(Oc3cc(F)c(NC(=O)c4c(C)n(C)c(C)c(C#N)c4=O)cc3F)c2nc1OC [Compound 83, 5-Cyano-N-[2,5-difluoro-4-[[6-methoxy-7-(2-methoxyethoxy)-1,5-naphthyridin-4-yl]oxy]phenyl]-1,2,6-trimethyl-4-oxopyridine-3-carboxamide]",6.52 to 7.00

# Results, then the compound that gave them:
row,pIC50,Compound
1,≥ 7.00,"COCCOc1cc2nccc(Oc3ccc(NC(=O)c4cnc(C)c(/C=C/C5CC5)c4O)cc3F)c2nc1OC [Compound 37, 5-[(E)-2-Cyclopropylethenyl]-N-[3-fluoro-4-[[6-methoxy-7-(2-methoxyethoxy)-1,5-naphthyridin-4-yl]oxy]phenyl]-4-hydroxy-6-methylpyridine-3-carboxamide]"
2,≥ 7.00,"COc1cc2nccc(Oc3ccc(NC(=O)c4cnc(C)c(C5=CCCC5)c4O)cc3F)c2cc1OC [Compound 18, 5-(Cyclopenten-1-yl)-N-[4-(6,7-dimethoxyquinolin-4-yl)oxy-3-fluorophenyl]-4-hydroxy-6-methylpyridine-3-carboxamide]"
3,≥ 7.00,"COc1cc2nccc(Oc3ccc(NC(=O)c4cnc(C)c(/C=C/CC(C)C)c4O)cc3F)c2nc1OC [Compound 28, N-[4-[(6,7-Dimethoxy-1,5-naphthyridin-4-yl)oxy]-3-fluorophenyl]-4-hydroxy-6-methyl-5-[(E)-4-methylpent-1-enyl]pyridine-3-carboxamide]"
4,≥ 7.00,"COCCOc1cc2nccc(Oc3ccc(NC(=O)c4cnc(C)c(C5=CCOCC5)c4O)cc3F)c2nc1OC [Compound 35, 5-(3,6-Dihydro-2H-pyran-4-yl)-N-[3-fluoro-4-[[6-methoxy-7-(2-methoxyethoxy)-1,5-naphthyridin-4-yl]oxy]phenyl]-4-hydroxy-6-methylpyridine-3-carboxamide]"
5,≥ 7.00,"COc1cnc2c(Oc3ccc(NC(=O)c4cnc(C)c(C5=CCCC5)c4O)cc3F)ccnc2c1 [Compound 1-9, 5-(Cyclopenten-1-yl)-N-[3-fluoro-4-[(7-methoxy-1,5-naphthyridin-4-yl)oxy]phenyl]-4-hydroxy-6-methylpyridine-3-carboxamide]"
6,≥ 7.00,"COc1cc2nccc(Oc3ccc(NC(=O)c4c(C)nc(C)c(C5=CCCC5)c4O)cc3F)c2nc1OC [Compound 1-2, 5-(Cyclopenten-1-yl)-N-[4-[(6,7-dimethoxy-1,5-naphthyridin-4-yl)oxy]-3-fluorophenyl]-4-hydroxy-2,6-dimethylpyridine-3-carboxamide hydrochloride]"
7,≥ 7.00,"COc1cc2nccc(Oc3ccc(NC(=O)c4c(C)nc(C)c(C(C)C)c4O)cc3F)c2nc1OC [Compound 31, N-[4-[(6,7-Dimethoxy-1,5-naphthyridin-4-yl)oxy]-3-fluorophenyl]-4-hydroxy-2,6-dimethyl-5-propan-2-ylpyridine-3-carboxamide]"
